Patent publication US20260294915A1, “COMBINATION THERAPY COMPRISING A MAT2A INHIBITOR AND A TOPOISOMERASE INHIBITOR, A SPLICING INHIBITOR SULFONAMIDE, OR A KIF18 INHIBITOR” (IDEAYA BIOSCIENCES, INC., priority 2023, published 2026)
Read-outs that look alike come from different tables or passages of the source. Each block holds one compound with its values, some of them ahead of it.

Key:
[1] = system: LMSU (RCB1062) human gastric tumor cell-derived xenograft (CDX) models; assay: Anti-tumor activity in LMSU gastric mouse xenograft (CDX) model (Example 9); assay type: in vivo; settings: Compound A 10 mg/kg oral once per day
Procedure: All mouse studies were approved by the Institutional Animal Care and Use Committee (IACUC) based on guidelines from the National Institutes of Health (NIH). Mice were maintained under pathogen-free conditions, and food and water were provided ad libitum.
The anti-tumor effect of Compound A and irinotecan hydrochloride as single-agents or in combination was assessed in the LMSU (RCB1062) human gastric tumor cell-derived xenograft (CDX) models. LMSU was expanded in HamF10 with 10% fetal bovine serum. Cells were free of mycoplasma and authenticated by STR profiling, and ten million cells in log growth phase were resuspended in Hanks Balanced Salt Solution containing 50% Matrigel and implanted subcutaneously into the flank of each recipient female Crl:NU-Foxn1nu mouse. Mice were housed in microisolator cages with corn cob bedding with additional enrichment consisting of sterile nesting material (Innovive) and Bio-huts (Bio-Serv). Water (Innovive) and diet (Teklad Global 19% Protein Extruded Diet 2919, Irradiated) were provided ad libitum. The environment was maintained on a 12-hour light cycle at approximately 68-72° F. and 40-60% relative humidity.
Tumor Volume (TV) was calculated using the following formula: TV (mm^3)=(width×width×length)/2. Tumor growth inhibition (TGI) was calculated by [(TV controlfinal−TV treatedfinal)/(TV controlfinal−TV controlinitial)×100]. TV was analyzed for statistical significance utilizing GraphPad Prism version 10.2.2. Repeated Measures 2-Way ANOVA with Dunnet's Multiple Comparisons was utilized, and P-values were derived from data collected on the date of Vehicle group termination and were considered statistically significant if less than 0.05.
Mean tumor volume at dosing start was approximately 185 mm^3, with seven mice randomized to each treatment group. Mice were dosed orally, once per day, with Vehicle, Compound A at 10 mg/kg, or dosed for 3 consecutive days followed by 4 days holiday by intraperitoneal (IP) injection of Compound B at 5 mg/kg or 10 mg/kg, or combination of Compound A and Compound B. The vehicle group was a combination of Vehicle A (for Compound A, 0.5% 400 cps methylcellulose with 0.5% Tween-80 in sterile water) and Vehicle B (for irinotecan hydrochloride, Saline).

HuP-T4 = assay: 10-day proliferation screen with Compound A pre-treatment (Example 3); assay type: cell-based; settings: Homo sapiens, read-out: Growth IC50
Procedure: (§1) A 10-day proliferation screen was performed in 15 pancreatic, non-small cell lung, and bladder cancer cell lines: 10 MTAP null and 5 MTAP wild-type. Optimal cell seeding for all cell lines was determined by assessing the growth over a range of seeding densities in a 384-well format to identify conditions that permitted proliferation for 10 days. Cells were then plated at the optimal seeding density in the presence of 20-150 nM of Compound A or DMSO vehicle control. Cells were incubated at 37° C. with 5% CO2 for 4 days to allow for target engagement of the pre-treatment compound. Maintaining the pre-treatment condition, cells were also treated with an 11-point, three-fold titration series of compounds from a chemically diverse library of 424 compounds. The combination compound concentrations ranged from 0.2 nM to 14,679 nM. A plate of cells was harvested at the time of combination compound addition to quantify the number of cells at the start of the combination (T0). For cell quantification, the harvested cells were lysed with CellTiter-Glo (CTG) (Promega) reagent according to the manufacturer's protocol and the chemiluminescent signal was detected on a Synergy Neo plate reader (ThermoFisher, serial #140715A). CTG estimates cell number through detection of cellular ATP levels. Cells were incubated with the drug combinations at 37° C. with 5% CO2 for an additional 6 days for a total of a 10-day assay including the pre-treatment. Cells were then lysed with CTG and the chemiluminescent signal was measured. CTG values obtained after the 10-day treatment were background subtracted, expressed as a percent of the T0 value, and plotted against compound concentration. Data were fit with a four-parameter equation to generate concentration response curves. Growth IC50 values and maximal growth inhibition were compared between the DMSO and the Compound A pre-treated cells for each combination titration. Combination hit calling was based on the observation of >2-fold shift in growth IC50 and/or greater than 20% […] in growth inhibition.

J82 = assay: as above; assay type: cell-based; settings: Homo sapiens, read-out: Growth IC50
Procedure: as §1

NCI-H2170 = assay: as above; assay type: cell-based; settings: Homo sapiens, read-out: Growth IC50
Procedure: as §1

NCI-H2228 = assay: as above; assay type: cell-based; settings: Homo sapiens, read-out: Growth IC50
Procedure: as §1

NCI-H520 = assay: as above; assay type: cell-based; settings: Homo sapiens, read-out: Growth IC50
Procedure: as §1

NCI-H838 = assay: as above; assay type: cell-based; settings: Homo sapiens, read-out: Growth IC50
Procedure: as §1

OE33 = assay: as above; assay type: cell-based; settings: Homo sapiens, read-out: Growth IC50
Procedure: as §1

RT112/84 = assay: as above; assay type: cell-based; settings: Homo sapiens, read-out: Growth IC50
Procedure: as §1

SW900 = assay: as above; assay type: cell-based; settings: Homo sapiens, read-out: Growth IC50
Procedure: as §1

TCCSUP = assay: as above; assay type: cell-based; settings: Homo sapiens, TCC-SUP, read-out: Growth IC50
Procedure: as §1

UMUC11 = assay: as above; assay type: cell-based; settings: read-out: Growth IC50
Procedure: as §1

UMUC5 = assay: as above; assay type: cell-based; settings: read-out: Growth IC50
Procedure: as §1

SMILES: Nc1nc(=O)n(-c2ccccc2Cl)c2nc(C(F)(F)F)ccc12 [Compound A]
Day 11 TGI [1]: −6%
TGI [1]: no significant TGI
Tumor Regression Rate on Day 11 [1]: 0%
Day 11 TV (mean) ([1]; initial TV 186, vehicle 1018): 1069 mm^3

IC50 (NCI-H2170; NCI-H2170, Cmpd A pre-treatment 80 nM): 5.55 µM
IC50 (NCI-H2170; NCI-H2170, DMSO pre-treatment): 7.17 µM
IC50 (NCI-H2228; NCI-H2228, Cmpd A pre-treatment 80 nM): 0.191 µM
IC50 (NCI-H2228; NCI-H2228, DMSO pre-treatment): 0.167 µM
IC50 (NCI-H520; NCI-H520, Cmpd A pre-treatment 80 nM): 0.79 µM
IC50 (NCI-H520; NCI-H520, DMSO pre-treatment): 0.727 µM
IC50 (NCI-H838; NCI-H838, Cmpd A pre-treatment 20 nM): 0.539 µM
IC50 (NCI-H838; NCI-H838, Cmpd A pre-treatment 150 nM): 0.342 µM
IC50 (NCI-H838; NCI-H838, DMSO pre-treatment (control for 20 nM Cmpd A)): 1.05 µM
IC50 (NCI-H838; NCI-H838, DMSO pre-treatment (control for 150 nM Cmpd A)): 0.807 µM
IC50 (SW900; SW900, Cmpd A pre-treatment 80 nM): 1.1 µM
IC50 (SW900; SW900, DMSO pre-treatment): 2.28 µM
SMILES: NS(=O)(=O)c1ccc(S(=O)(=O)Nc2cccc3c(Cl)c[nH]c23)cc1 [Indisulam, N-(3-chloro-1H-indol-7-yl)benzene-1,4-disulfonamide]
IC50 (HuP-T4; HuP-T4, Cmpd A pre-treatment 150 nM): 0.549 µM
IC50 (HuP-T4; HuP-T4, DMSO pre-treatment): 1.07 µM
IC50 (J82; J82, Cmpd A pre-treatment 150 nM): 7.1 µM
IC50 (J82; J82, DMSO pre-treatment): 12.5 µM
IC50 (OE33; OE33, Cmpd A pre-treatment 150 nM): 5.37 µM
IC50 (OE33; OE33, DMSO pre-treatment): 12.1 µM
IC50 (RT112/84; RT112/84, Cmpd A pre-treatment 150 nM): 0.229 µM
IC50 (RT112/84; RT112/84, DMSO pre-treatment): 0.913 µM
IC50 (TCCSUP; Cmpd A pre-treatment 150 nM): 6.08 µM
IC50 (TCCSUP; DMSO pre-treatment): 8.66 µM
IC50 (UMUC11; Cmpd A pre-treatment 150 nM): 1.27 µM
IC50 (UMUC11; DMSO pre-treatment): 0.864 µM
IC50 (UMUC5; Cmpd A pre-treatment 150 nM): 0.807 µM
IC50 (UMUC5; DMSO pre-treatment): 1.83 µM
